Assay results published in ChEMBL document CHEMBL6096721, “Discovery of Selenium-Containing Derivatives as Potent and Orally Bioavailable GLP-1R Agonists” (J Med Chem, 2025).
Active and inactive are the calls of the source. The calls are words filed in the database; no cut-off is given here.

Legend:
[1] = target: T1, Glucagon-like peptide 1 receptor (Homo sapiens, UniProt P43220); assay: Agonist activity at human GLP-1R expressed in HEK293 cells assessed as cAMP accumulation incubated for 30 mins by LANCE ultra cAMP assay; type: functional, cell-based
[2] = Oral bioavailability in male rat at 5 mg/kg; type: ADME, organism-based; conditions: in vivo
[3] = Half-life in male rat at 1 mg/kg, iv; type: ADME, organism-based; conditions: in vivo
[4] = target: T1, Glucagon-like peptide 1 receptor; assay: Partial agonist activity at LgBit-tagged GLP-1R (unknown origin) transfected in HEK293 cells co-transfected with Smbit-tagged beta-arrestin-1 assessed as beta-arrestin recruitment incubated for 5 mins by envision microplate reader analysis; type: functional, cell-based
[5] = Clearance in male ICR mouse at 2 mg/kg, iv measured after 24 hrs by LC-MS/MS analysis; type: ADME, organism-based; conditions: in vivo
[6] = MRT (0 to t) in male ICR mouse at 10 mg/kg, po measured after 24 hrs by LC-MS/MS analysis; type: ADME, organism-based; conditions: in vivo
[7] = Half-life in male ICR mouse at 10 mg/kg, po measured after 24 hrs by LC-MS/MS analysis; type: ADME, organism-based; conditions: in vivo
[8] = Oral bioavailability in male ICR mouse at 10 mg/kg measured after 24 hrs by LC-MS/MS analysis; type: ADME, organism-based; conditions: in vivo
[9] = Apparent volume of distribution in male ICR mouse at 2 mg/kg, iv measured after 24 hrs by LC-MS/MS analysis; type: ADME, organism-based; conditions: in vivo, read-out: Vz
[10] = Cmax in male ICR mouse at 10 mg/kg, po measured after 24 hrs by LC-MS/MS analysis; type: ADME, organism-based; conditions: in vivo
[11] = Tmax in male ICR mouse at 10 mg/kg, po measured after 24 hrs by LC-MS/MS analysis; type: ADME, organism-based; conditions: in vivo
[12] = Cmax in male ICR mouse at 2 mg/kg, iv measured after 24 hrs by LC-MS/MS analysis; type: ADME, organism-based; conditions: in vivo
[13] = AUC (0 to t) in male ICR mouse at 2 mg/kg, iv measured after 24 hrs by LC-MS/MS analysis; type: ADME, organism-based; conditions: in vivo
[14] = MRT (0 to t) in male ICR mouse at 2 mg/kg, iv measured after 24 hrs by LC-MS/MS analysis; type: ADME, organism-based; conditions: in vivo
[15] = AUC (0 to t) in male ICR mouse at 10 mg/kg, po measured after 24 hrs by LC-MS/MS analysis; type: ADME, organism-based; conditions: in vivo
[16] = target: T1, Glucagon-like peptide 1 receptor; assay: Partial agonist activity at LgBit-tagged GLP-1R (unknown origin) transfected in HEK293 cells co-transfected with Smbit-tagged beta-arrestin-1 assessed as beta-arrestin recruitment by measuring maximal efficacy incubated for 5 mins by envision microplate reader analysis relative to control; type: functional, cell-based
[17] = Half-life in male ICR mouse at 2 mg/kg, iv measured after 24 hrs by LC-MS/MS analysis; type: ADME, organism-based; conditions: in vivo
[18] = tested on: Mus musculus; assay: Appetite suppressing activity in human GLP-1R knockin male mouse model assessed as reduction in food intake at 30 mg/kg, sc measured at 12 to 24 hrs (light cycle); type: functional, organism-based; conditions: time 12-24 hrs
[19] = tested on: Mus musculus; assay: Antidiabetic activity in human GLP-1R knockin male mouse model assessed as reduction in blood glucose level at 2 mg/kg, IG preadministered with compound for 1 hrs followed by glucose administration for 3 hrs by oral glucose tolerance test; type: functional, organism-based; conditions: time 4.0 hrs
[20] = tested on: Mus musculus; assay: Antidiabetic activity in human GLP-1R knockin male mouse model assessed as reduction in blood glucose level at 2 mg/kg, IG preadministered with compound for 1 hrs followed by first dose of glucose administration for 3 hrs and measured after 300 mins of second glucose administration by oral glucose tolerance test; type: functional, organism-based; conditions: time 540.0 min
[21] = tested on: Mus musculus; assay: Appetite suppressing activity in human GLP-1R knockin male mouse model assessed as reduction in food intake at 30 mg/kg, sc measured after 2.5 to 12 hrs; type: functional, organism-based; conditions: time 2.5-12 hrs

T1 sequence (P43220 whole entry): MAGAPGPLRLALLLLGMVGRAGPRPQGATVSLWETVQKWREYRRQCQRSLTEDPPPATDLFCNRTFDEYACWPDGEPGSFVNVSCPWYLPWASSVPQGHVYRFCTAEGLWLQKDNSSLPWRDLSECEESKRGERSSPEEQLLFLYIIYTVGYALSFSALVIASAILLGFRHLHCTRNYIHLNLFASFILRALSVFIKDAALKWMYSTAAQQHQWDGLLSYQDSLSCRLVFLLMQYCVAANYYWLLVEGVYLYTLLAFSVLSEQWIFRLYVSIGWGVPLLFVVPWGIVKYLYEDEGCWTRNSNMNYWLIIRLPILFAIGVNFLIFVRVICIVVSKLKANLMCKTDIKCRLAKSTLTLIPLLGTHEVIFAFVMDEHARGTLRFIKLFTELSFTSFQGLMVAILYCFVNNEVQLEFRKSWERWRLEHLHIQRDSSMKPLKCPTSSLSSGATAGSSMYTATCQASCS

CC(C)[C@H](NCc1nc2ccc(C(=O)O)cc2n1C[C@@H]1CCO1)C(=O)Nc1cccc([Se]Cc2ccc(C#N)cc2F)n1
EC50 [1]: > 200 µM

N#Cc1ccc(C[Se]c2cccc(C3CCN(Cc4nc5ccc(C(=O)O)cc5n4C[C@@H]4CCO4)CC3)n2)c(F)c1
bioavailability [2]: 23.4% | half-life [3]: 0.47 h

COc1cc(C#N)ccc1C[Se]c1cccc(N2C=NN(Cc3nc4c(F)cc(C(=O)O)cc4n3C[C@@H]3CCO3)CC2)n1
EC50 [4]: > 200 µM | clearance [5]: 10.3 mL/min/kg | MRT last at 24 h [6]: 2.88 h | half-life [7]: 7.02 h | bioavailability [8]: 3.38% | Vd [9]: 4.25 L/kg | Cmax [10]: 324 ng/mL | Tmax [11]: 0.5 h | Cmax [12]: 13400 ng/mL | AUC(0-t) at 24 h [13]: 3260 ng·h/mL | MRT last at 24 h [14]: 0.4 h | AUC(0-t) at 24 h [15]: 537 ng·h/mL | Emax [16]: 12% | half-life [17]: 4.52 h

N#Cc1ccc(COc2cccc(C3CCN(Cc4nc5ccc(C(=O)O)cc5n4C[C@@H]4CCO4)CC3)n2)c(F)c1
Activity [18]: Active | Activity [19]: Active | Activity [20]: Active | Activity [21]: Active
